Assay results as given in paper PMC6028423, “Synthetic molecular evolution of hybrid cell penetrating peptides” (Nature Communications, 2018).

Key:
HeLa cells = assay: TAMRA delivery assay, flow cytometry; type: cell-based, human; conditions: tested as peptide-TA; 0.5 µM peptide-TA + 4.5 µM peptide-C, 30 min, serum-free DMEM, trypsinized, live SYTOX Green-negative cells; temperature not given
Method: (§1) Parent and daughter sequences lacking the PNA cargo were characterized to determine the effect of the cargo on delivery. Sequences were labeled with the fluorophore tetramethylrhodamine (TAMRA) on a C-terminal cysteine residue (PDEP-TA) and their delivery to multiple human cell types was measured by flow cytometry. To test the efficiency under stringent conditions, we used peptide concentrations of only 5 μM total containing 0.5 μM dye-labeled peptide. Peptides were incubated with HeLa, RAW264.7, HepG2, and MCF-7 cells for 30 min at 4 °C, 21 °C, or 37 °C, followed by trypsinization to detach cells for counting and to digest any externally bound peptide. PDEP-TA conjugates are not toxic at this concentration range (Supplementary Figure 2). Flow cytometric analysis (Fig. 3 and Supplementary Figure 4) was used to count TAMRA-positive cells and to measure TAMRA intensity distributions. Confocal microscopy was used to visualize peptide distribution in cells for each cell type (Fig. 3). Time series confocal images of PDEP P17-TA incubated HeLa cells at 21 °C and 37 °C (Fig. 3a) show immediate punctate membrane association. At 37 °C, but not at 21 °C, uptake of dye in punctate structures is observed. At both temperatures, individual cells rapidly and stochastically show the appearance of TAMRA with a diffuse cytosolic distribution in addition to bright puncta. All PDEPs behave similarly and maximum intensity is reached by 30 min at all temperatures. Cell surface-bound peptide is not observed under flow cytometry conditions (Fig. 3a).
(§2) HeLa, RAW264.7, HCT116, HepG2, and MCF-7 cells were plated in 12-well plates at 100,000 cells/well. After 24 h, cells were gently washed in PBS, topped with 500 µl of PDEP-TA solution containing 0.5 µM PDEP-TA + 4.5 µM PDEP-C in sfDMEM without phenol red, and incubated for 30 min at either 4 °C, 23 °C, or 37 °C. […] Cells were transferred to a filter-topped flow cytometry tube and analyzed on a BD LSR II flow cytometer. Cells displaying a normal morphology were gated and first analyzed for GFP fluorescence using the […] laser. GFP-negative cells were used to generate a histogram of TAMRA fluorescence, measured with the […] laser.
(§3) Supplementary Figure 4. Flow cytometry gating strategy for Peptide-C-TA treated cells. In this example, HeLa cells were treated with 5 μM P17-C-TA for 30 minutes at 37°C. Live cells were identified by forward and side scatter. Doublets were excluded in two gating steps using SSC-H x SSC-W and FSC-H x FSC-W. Cells with compromised membranes permitting SYTOX green entry were excluded. The percent of the remaining cells testing positive for TAMRA fluorescence were defined as those with a fluorescence value ≥3000. Additionally, the mean fluorescence for all SYTOX negative cells was recorded.

MCF-7 cells = assay: TAMRA delivery assay, flow cytometry; type: cell-based, human; conditions: tested as peptide-TA; 0.5 µM peptide-TA + 4.5 µM peptide-C, 30 min, serum-free DMEM, trypsinized, live SYTOX Green-negative cells; temperature not given
Method: as §1, §2, §3

HepG2 cells = assay: TAMRA delivery assay, flow cytometry; type: cell-based, human; conditions: tested as peptide-TA; 0.5 µM peptide-TA + 4.5 µM peptide-C, 30 min, serum-free DMEM, trypsinized, live SYTOX Green-negative cells; temperature not given
Method: as §1, §2, §3

[1] = test system: HeLa, RAW264.7, HepG2, and MCF-7 cells; assay: TAMRA delivery, flow cytometry and confocal microscopy, statements over several cell types or cell type not stated; type: cell-based; conditions: cell type and temperature not stated; threshold just above cells treated with free TAMRA; single example
Method: Parent and daughter sequences lacking the PNA cargo were characterized to determine the effect of the cargo on delivery. Sequences were labeled with the fluorophore tetramethylrhodamine (TAMRA) on a C-terminal cysteine residue (PDEP-TA) and their delivery to multiple human cell types was measured by flow cytometry. To test the efficiency under stringent conditions, we used peptide concentrations of only 5 μM total containing 0.5 μM dye-labeled peptide. Peptides were incubated with HeLa, RAW264.7, HepG2, and MCF-7 cells for 30 min at 4 °C, 21 °C, or 37 °C, followed by trypsinization to detach cells for counting and to digest any externally bound peptide. […]. […]
HeLa, RAW264.7, HCT116, HepG2, and MCF-7 cells were plated in 12-well plates at 100,000 cells/well. […] Cells were transferred to a filter-topped flow cytometry tube and analyzed on a BD LSR II flow cytometer. Cells displaying a normal morphology were gated and first analyzed for GFP fluorescence using the […] laser. GFP-negative cells were used to generate a histogram of TAMRA fluorescence, measured with the […] laser. […]
Cells were treated as described above for the TAMRA delivery assay and immediately imaged to avoid artifacts resulting from fixation. The distribution of TAMRA and Sytox Green was analyzed using a confocal scanning Nikon Eclipse Ti2 inverted microscope using a 40× oil-immersion objective. […]

RAW264.7 cells = assay: TAMRA delivery assay, flow cytometry; type: cell-based; conditions: tested as peptide-TA; 0.5 µM peptide-TA + 4.5 µM peptide-C, 30 min, serum-free DMEM, trypsinized, live SYTOX Green-negative cells; temperature not given
Method: Parent and daughter sequences lacking the PNA cargo were characterized to determine the effect of the cargo on delivery. Sequences were labeled with the fluorophore tetramethylrhodamine (TAMRA) on a C-terminal cysteine residue (PDEP-TA) and their delivery to multiple human cell types was measured by flow cytometry. To test the efficiency under stringent conditions, we used peptide concentrations of only 5 μM total containing 0.5 μM dye-labeled peptide. Peptides were incubated with HeLa, RAW264.7, HepG2, and MCF-7 cells for 30 min at 4 °C, 21 °C, or 37 °C, followed by trypsinization to detach cells for counting and to digest any externally bound peptide. PDEP-TA conjugates are not toxic at this concentration range (Supplementary Figure 2). […]
HeLa, RAW264.7, HCT116, HepG2, and MCF-7 cells were plated in 12-well plates at 100,000 cells/well. […] Cells were transferred to a filter-topped flow cytometry tube and analyzed on a BD LSR II flow cytometer. Cells displaying a normal morphology were gated and first analyzed for GFP fluorescence using the […] laser. GFP-negative cells were used to generate a histogram of TAMRA fluorescence, measured with the 543 nM laser.
Supplementary Figure 4. […] The percent of the remaining cells testing positive for TAMRA fluorescence were defined as those with a fluorescence value ≥3000. Additionally, the mean fluorescence for all SYTOX negative cells was recorded.

[2] = test system: HeLa pTRE-LucIVS2-705 cells; assay: PNA705 mediated luciferase splice correction (luminescence per µg protein); type: cell-based, human; conditions: for PNA705 delivery efficiency in words (Fig. 2a): tested as CPP-PNA705 conjugate, up to 5 µM
Method: Cells were treated for 30 min in serum-free media at 37 °C, and then allowed to recover for 24 h in complete media. […] After 24 h, cell lysates were assayed for luciferase by luminescence (Fig. 2a) and for splice corrected mRNA by quantitative PCR (Fig. 2b). To control for total cell density, lysates were also analyzed for total protein by the BCA assay.
HeLa pTRE-LucIVS2-705 cells were seeded on flat-bottom 96-well plates at 10,000 cells per well in 200 µl complete DMEM. The following day, cells were washed in phosphate buffered saline and topped with premixed 50 µl 2× serum/phenol red-free DMEM (Gibco) + 50 µl peptide cleavage solution (ddH2O + peptide). Cells were transfected for 30 min at 37 °C with 5% CO2. The transfection solution was removed, cells were topped with 100 µl complete DMEM. The next day (24-h recovery) cells were washed in PBS. Cells were lysed in 20 µl reporter lysis buffer (Promega E4030) following the manufacturer’s protocol. A volume of 10 μl of lysate from each well was transferred to a 96-well solid black plate; 100 μl of luciferase assay reagent from the Luciferase Assay System (Promega E1500) was added, the plate was agitated for 10 s, and luminescence was measured with a BioTek Synergy 2 plate reader with injector ports. Total protein was measured with a BCA assay (described below). Data were expressed as RLU per µg protein (RLU (µg protein)^−1). During screening, positive wells were defined as those whose RLU per µg protein values exceeded the average for the plate by at least three standard deviations. Subsequent PNA705 delivery experiments were conducted as described above except that volumes were scaled for 24-well plate format.
The remaining 10 µl of lysate from the splice correction assay was combined with 100 µl of the BCA reagents and incubated for 1–4 h at 37 °C per the manufacturer’s protocol. Absorbance at 562 nm was measured using a measured with a BioTek Synergy 2 plate reader.

[3] = test system: HeLa pTRE-LucIVS2-705 cells; assay: qRT-PCR of correctly spliced luciferase mRNA; type: cell-based, human; conditions: 1.25 µM CPP-PNA705, 30-min incubation, 24-h recovery
Method: To quantify splice correction at the mRNA level, we designed qRT-PCR primers to target the splice junction of the properly spliced mRNA transcript. […] We observe a >100 fold increase in properly spliced luciferase mRNA in cells treated with PDEP–PNA705 relative to control. At 5 μM, the most efficient chimera, P14-PNA705, is 30-fold better than tat, 7-fold better than penetratin, and 4-fold better than Arg9.
HeLa pTRE-LucIVS2 cells were treated as described above with PDEP–PNA705 constructs at varying concentrations. RNA was extracted using the Direct-Zol^TM RNA purification system (Zymo Research) and reverse transcribed with the iScript cDNA synthesis kit (Bio-Rad), and mRNA splice correction was detected using PowerUp SYBR Green master mix (ThermoFisher) on an Applied Biosystems QuantStudio 6 using the following primers sets: […]
The relative quantification of correctly spliced mRNA (90 bp amplicon) over background was calculated using the Pfaffl model.

| Molecule | HeLa %+ (TAMRA-positive cells) (HeLa cells) | MCF-7 %+ (TAMRA-positive cells) (MCF-7 cells) | HEPG2 %+ (TAMRA-positive cells) (HepG2 cells) | TAMRA-positive cells, example flow cytometry results (Fig. 3b) [1] | RAW %+ (TAMRA-positive cells) (RAW264.7 cells) | PNA705 delivery efficiency in words (Fig. 2a) [2] | increase in corrected mRNA over control [3] | PNA705 delivery efficiency, head-to-head comparison in the response to reviewers ([2]; PepB-PNA705, P17-PNA705, tat-PNA705 and no treatment, same approach as in the paper) |
| --- | --- | --- | --- | --- | --- | --- | --- | --- |
| CN(C)c1ccc2c(-c3ccccc3C(=O)[O-])c3ccc(N(C)C)cc3[o+]c2c1 [TAMRA, tetramethylrhodamine] | 0.0% | 14.4% | 0.0% | 1.99% | 6.90% | – | – | – |
| Arg9 | 8.1% | 1.6% | 16.6% | – | 64.5% | much better than tat itself | not measurably higher than control | – |
| (RXRRBR)2 [Peptide B, (RXRRBR)2, eight arginines and four linear linkers; drives delivery of splice correcting PMOs in vivo] | – | – | – | – | – | relatively low PNA delivery efficiency | – | much more efficient than tat |
